# Target: hCRTH2 receptor (Homo sapiens (Human), UniProt Q9Y5Y4)
# Assay: hCRTH2 receptor membranes radioligand (3H-PGD2) displacement assay
# Conditions: hCRTH2 membrane fragments, Binding-Buffer with 0.1% BSA
# Description: Biological Assays: Preparation of hCRTH2 Receptor Membranes and Radioligand Displacement Assay:
# First, recombinant HEK293-hCRTH2 cells were detached from culture plates into 5 ml buffer A/plate (Buffer A: 5 mM Tris, 1 mM MgCl2-6H2O pH=7.4) using a rubber policeman. Cells were then transferred into centrifugation tubes and centrifuged for 5 min at 400 g. The cell pellet was resuspended in the same buffer and tubes were frozen at −80° C. Cells were thawed and membrane fragments were generated by homogenization using a polytron homogenizer (30 seconds). The membrane fragments were then centrifuged at 3000 g for 20 minutes and resuspended in buffer C (Buffer C: 75 mM Tris, 25 mM MgCl2, 250 mM Saccharose pH 7.4). Aliquots of membrane fragments were stored at −20° C.
# Binding assay was performed in a final assay volume of 250 μl. First, 25 μl of test compound, previously diluted in Binding-Buffer (Binding-Buffer: 50 mM Tris-Base, 100 mM NaCl, 1 mM EDTA, 0.1% BSA (protease free), 0.01% NaN3, 10 mM MnCl2, pH 7.0) was placed into each well. […] Binding assay was started by addition of 100 μl CRTH2 membrane fragments, reaching a final concentration of 20 μg/well. For non-specific binding, PGD2 was added to the reaction mixture to […] final concentration. This assay mix was incubated for 90 minutes at room temperature and then filtered through a GF/C filter 96-well plate which was pre-soaked for 3 hours in 0.5% polyethyleneimine (PEI). The filter-wells were washed three times with ice cold Binding-Buffer. Then, 40 μl of Microscint-40 (Packard) was added to each well and the retained radioactivity quantified in a Topcount (Packard).
# Chain of hCRTH2 receptor (Q9Y5Y4 whole entry): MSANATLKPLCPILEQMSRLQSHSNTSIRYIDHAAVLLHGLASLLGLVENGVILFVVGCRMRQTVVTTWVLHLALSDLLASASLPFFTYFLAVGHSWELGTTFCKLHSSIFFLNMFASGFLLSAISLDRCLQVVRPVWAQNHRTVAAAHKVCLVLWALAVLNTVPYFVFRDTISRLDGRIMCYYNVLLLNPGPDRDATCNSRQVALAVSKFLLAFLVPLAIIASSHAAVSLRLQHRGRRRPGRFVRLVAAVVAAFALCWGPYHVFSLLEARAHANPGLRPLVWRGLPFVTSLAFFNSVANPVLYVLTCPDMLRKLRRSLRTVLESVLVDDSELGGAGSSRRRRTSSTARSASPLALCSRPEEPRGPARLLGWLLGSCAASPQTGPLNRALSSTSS
row,SMILES,IC50
1,"O=C(O)COc1ccc(Cl)cc1C1c2scnc2CCN1C(=O)NCc1ccccc1F (racemic) [Example 1, (±)-{4-Chloro-2-[5-(2-fluoro-benzylcarbamoyl)-4,5,6,7-tetrahydro-thiazolo[5,4-c]pyridin-4-yl]-phenoxy}-acetic acid]",9.4 nM
2,"O=C(O)COc1ccc(Cl)cc1C1c2scnc2CCN1C(=O)NCc1cccc(F)c1 (racemic) [Example 2, (±)-{4-Chloro-2-[5-(3-fluoro-benzylcarbamoyl)-4,5,6,7-tetrahydro-thiazolo[5,4-c]pyridin-4-yl]-phenoxy}-acetic acid]",38.9 nM
3,"O=C(O)COc1ccc(Cl)cc1C1c2scnc2CCN1C(=O)NCc1ccc(F)cc1 (racemic) [Example 3, (±)-{4-Chloro-2-[5-(4-fluoro-benzylcarbamoyl)-4,5,6,7-tetrahydro-thiazolo[5,4-c]pyridin-4-yl]-phenoxy}-acetic acid]",124 nM
4,"O=C(O)COc1ccc(Cl)cc1C1c2sc(C(F)(F)F)nc2CCN1C(=O)OCc1ccccc1 (racemic) [Example 12, (±)-4-(2-Carboxymethoxy-5-chloro-phenyl)-2-trifluoromethyl-6,7-dihydro-4H-thiazolo[5,4-c]pyridine-5-carboxylic acid benzyl ester]",6.5 nM
5,"CC(C)c1nc2c(s1)C(c1cc(Cl)ccc1OCC(=O)O)N(C(=O)OCc1ccccc1)CC2 (racemic) [Example 13, (±)-4-(2-Carboxymethoxy-5-chloro-phenyl)-2-isopropyl-6,7-dihydro-4H-thiazolo[5,4-c]pyridine-5-carboxylic acid benzyl ester]",64.8 nM
6,"O=C(O)COc1ccc(Cl)cc1C1c2sc(C3CC3)nc2CCN1C(=O)OCc1ccccc1 (racemic) [Example 14, (±)-4-(2-Carboxymethoxy-5-chloro-phenyl)-2-cyclopropyl-6,7-dihydro-4H-thiazolo[5,4-c]pyridine-5-carboxylic acid benzyl ester]",65.7 nM
7,"Cc1nc2c(s1)C(c1cc(Cl)ccc1OCC(=O)O)N(C(=O)OCc1ccccc1)CC2 (racemic) [Example 15, (±)-4-(2-Carboxymethoxy-5-chloro-phenyl)-2-methyl-6,7-dihydro-4H-thiazolo[5,4-c]pyridine-5-carboxylic acid benzyl ester]",6.2 nM
8,"CCc1nc2c(s1)C(c1cc(Cl)ccc1OCC(=O)O)N(C(=O)OCc1ccccc1)CC2 (racemic) [Example 16, (±)-4-(2-Carboxymethoxy-5-chloro-phenyl)-2-ethyl-6,7-dihydro-4H-thiazolo[5,4-c]pyridine-5-carboxylic acid benzyl ester]",14.2 nM
9,"O=C(O)COc1ccc(Cl)cc1C1c2sc(Br)nc2CCN1C(=O)OCc1ccccc1 (racemic) [Example 20, (±)-2-Bromo-4-(2-carboxymethoxy-5-chloro-phenyl)-6,7-dihydro-4H-thiazolo[5,4-c]pyridine-5-carboxylic acid benzyl ester]",3 nM
10,"O=C(O)COc1ccc(Cl)cc1C1c2scnc2CCN1C(=O)CCOc1ccc(F)cc1 (racemic) [Example 21, (±)-(4-Chloro-2-{5-[3-(4-fluoro-phenoxy)-propionyl]-4,5,6,7-tetrahydro-thiazolo[5,4-c]pyridin-4-yl}-phenoxy)-acetic acid]",19.6 nM
11,"O=C(O)COc1ccc(Cl)cc1C1c2scnc2CCN1C(=O)[C@@H]1C[C@H]1c1ccccc1C(F)(F)F (mixture of isomers) [Example 23, (±)-(4-Chloro-2-{trans-5-[2-(2-trifluoromethyl-phenyl)-cyclopropanecarbonyl]-4,5,6,7-tetrahydro-thiazolo[5,4-c]pyridin-4-yl}-phenoxy)-acetic acid]",6.5 nM
12,"O=C(O)COc1ccc(Cl)cc1C1c2scnc2CCN1C(=O)[C@@H]1C[C@H]1c1ccccc1Cl (mixture of isomers) [Example 24, (±)-(4-Chloro-2-{trans-5-[2-(2-chloro-phenyl)-cyclopropanecarbonyl]-4,5,6,7-tetrahydro-thiazolo[5,4-c]pyridin-4-yl}-phenoxy)-acetic acid]",7.3 nM
13,"Cc1ccccc1[C@@H]1C[C@H]1C(=O)N1CCc2ncsc2C1c1cc(Cl)ccc1OCC(=O)O (mixture of isomers) [Example 25, (±)-{4-Chloro-2-[trans-5-(2-o-tolyl-cyclopropanecarbonyl)-4,5,6,7-tetrahydro-thiazolo[5,4-c]pyridin-4-yl]-phenoxy}-acetic acid]",6.5 nM
14,"COc1ccc2[nH]cc(CCC(=O)N3CCc4ncsc4C3c3cc(Cl)ccc3OCC(=O)O)c2c1 (racemic) [Example 26, (±)-(4-Chloro-2-{5-[3-(5-methoxy-1H-indol-3-yl)-propionyl]-4,5,6,7-tetrahydro-thiazolo[5,4-c]pyridin-4-yl}-phenoxy)-acetic acid]",45.1 nM
15,"Cc1[nH]c2ccccc2c1CCC(=O)N1CCc2ncsc2C1c1cc(Cl)ccc1OCC(=O)O (racemic) [Example 27, (±)-(4-Chloro-2-{5-[3-(2-methyl-1H-indol-3-yl)-propionyl]-4,5,6,7-tetrahydro-thiazolo[5,4-c]pyridin-4-yl}-phenoxy)-acetic acid]",219 nM
16,"Cc1ccccc1CCC(=O)N1CCc2ncsc2C1c1cc(Cl)ccc1OCC(=O)O (racemic) [Example 29, (±)-{4-Chloro-2-[5-(3-o-tolyl-propionyl)-4,5,6,7-tetrahydro-thiazolo[5,4-c]pyridin-4-yl]-phenoxy}-acetic acid]",25.6 nM
17,"O=C(O)COc1ccc(Cl)cc1C1c2scnc2CCN1C(=O)CCCc1ccccc1F (racemic) [Example 30, (±)-(4-Chloro-2-{5-[4-(2-fluoro-phenyl)-butyryl]-4,5,6,7-tetrahydro-thiazolo[5,4-c]pyridin-4-yl}-phenoxy)-acetic acid]",8.1 nM
18,"O=C(O)COc1ccc(Cl)cc1C1c2scnc2CCN1C(=O)COCc1ccccc1Cl (racemic) [Example 31, (±)-(4-Chloro-2-{5-[2-(2-chloro-benzyloxy)-acetyl]-4,5,6,7-tetrahydro-thiazolo[5,4-c]pyridin-4-yl}-phenoxy)-acetic acid]",5 nM
19,"Cc1ccc(OCC(=O)N2CCc3ncsc3C2c2cc(Cl)ccc2OCC(=O)O)c(C)n1 (racemic) [Example 32, (±)-(4-Chloro-2-{5-[2-(2,6-dimethyl-pyridin-3-yloxy)-acetyl]-4,5,6,7-tetrahydro-thiazolo[5,4-c]pyridin-4-yl}-phenoxy)-acetic acid]",83.2 nM
20,"O=C(O)COc1ccc(Cl)cc1C1c2scnc2CCN1C(=O)COc1ccccc1 (racemic) [Example 34, (±)-{4-Chloro-2-[5-(2-phenoxy-acetyl)-4,5,6,7-tetrahydro-thiazolo[5,4-c]pyridin-4-yl]-phenoxy}-acetic acid]",87.4 nM
21,"C[C@@H](CC(=O)N1CCc2ncsc2C1c1cc(Cl)ccc1OCC(=O)O)c1ccccc1 (mixture of isomers) [Example 35, (±)-{4-Chloro-2-[5-((S)-3-phenyl-butyryl)-4,5,6,7-tetrahydro-thiazolo[5,4-c]pyridin-4-yl]-phenoxy}-acetic acid]",355 nM
22,"O=C(O)COc1ccc(Cl)cc1C1c2scnc2CCN1C(=O)C1Cc2ccccc2C1 (racemic) [Example 36, (±)-{4-Chloro-2-[5-(indane-2-carbonyl)-4,5,6,7-tetrahydro-thiazolo[5,4-c]pyridin-4-yl]-phenoxy}-acetic acid]",733 nM
23,"O=C(O)COc1ccc(Cl)cc1C1c2scnc2CCN1C(=O)CC1(c2ccccc2)CC1 (racemic) [Example 37, (±)-(4-Chloro-2-{5-[2-(1-phenyl-cyclopropyl)-acetyl]-4,5,6,7-tetrahydro-thiazolo[5,4-c]pyridin-4-yl}-phenoxy)-acetic acid]",130 nM
24,"C[C@H](CC(=O)N1CCc2ncsc2C1c1cc(Cl)ccc1OCC(=O)O)c1ccccc1 (mixture of isomers) [Example 38, (±)-{4-Chloro-2-[5-((R)-3-phenyl-butyryl)-4,5,6,7-tetrahydro-thiazolo[5,4-c]pyridin-4-yl]-phenoxy}-acetic acid]",12.2 nM
25,"O=C(O)COc1ccc(Cl)cc1[C@@H]1c2scnc2CCN1C(=O)C[C@H]1OCCc2ccccc21 (racemic) [Example 39, (±)-{4-Chloro-2-[5-((±)-2-isochroman-1-yl-acetyl)-4,5,6,7-tetrahydro-thiazolo[5,4-c]pyridin-4-yl]-phenoxy}-acetic acid]",99.1 nM
26,"CC(C)(C)CC(=O)N1CCc2ncsc2C1c1cc(Cl)ccc1OCC(=O)O (racemic) [Example 40, (±)-{4-Chloro-2-[5-(3,3-dimethyl-butyryl)-4,5,6,7-tetrahydro-thiazolo[5,4-c]pyridin-4-yl]-phenoxy}-acetic acid]",950 nM
27,"O=C(O)COc1ccc(Cl)cc1C1c2scnc2CCN1C(=O)CC1CC1 (racemic) [Example 41, (±)-{4-Chloro-2-[5-(2-cyclopropyl-acetyl)-4,5,6,7-tetrahydro-thiazolo[5,4-c]pyridin-4-yl]-phenoxy}-acetic acid]",83.9 nM
28,"O=C(O)COc1ccc(Cl)cc1C1c2scnc2CCN1C(=O)Cc1n[nH]c2ccccc12 (racemic) [Example 44, (±)-{4-Chloro-2-[5-(2-1H-indazol-3-yl-acetyl)-4,5,6,7-tetrahydro-thiazolo[5,4-c]pyridin-4-yl]-phenoxy}-acetic acid]",48.1 nM

# Reference: patent US9169270B2, “1-phenyl-substituted heterocyclyl derivatives and their use as prostaglandin D2 receptor modulators” (Actelion Pharmaceuticals Ltd., priority 2012, dated 2015)
